The assay addresses DNA topoisomerase 2-alpha (Homo sapiens, UniProt P11388). Kind of assay: Topoisomerase IIα Relaxation Assay. The settings on record: pH 7.9. On the procedure: Relaxation of negatively supercoiled plasmid DNA by human topoisomerase IIα was assayed in 20 µL of reaction buffer (10 mM Tris-HCl, pH 7.9, 150 mM NaCl, 0.1% BSA, 0.1 mM spermidine, 5% glycerol and ATP) containing 250 ng of supercoiledpHOT1 plasmid DNA and 1 unit of enzyme. After incubation at 37 °C for 30 min, the reactions were terminated and analysed by agarose gel electrophoresis. The ethidium bromide-stained gel was photographed over UV light for densitometry analysis.

Bounds are passed on as bounds.

Chain of DNA topoisomerase 2-alpha (P11388 whole entry): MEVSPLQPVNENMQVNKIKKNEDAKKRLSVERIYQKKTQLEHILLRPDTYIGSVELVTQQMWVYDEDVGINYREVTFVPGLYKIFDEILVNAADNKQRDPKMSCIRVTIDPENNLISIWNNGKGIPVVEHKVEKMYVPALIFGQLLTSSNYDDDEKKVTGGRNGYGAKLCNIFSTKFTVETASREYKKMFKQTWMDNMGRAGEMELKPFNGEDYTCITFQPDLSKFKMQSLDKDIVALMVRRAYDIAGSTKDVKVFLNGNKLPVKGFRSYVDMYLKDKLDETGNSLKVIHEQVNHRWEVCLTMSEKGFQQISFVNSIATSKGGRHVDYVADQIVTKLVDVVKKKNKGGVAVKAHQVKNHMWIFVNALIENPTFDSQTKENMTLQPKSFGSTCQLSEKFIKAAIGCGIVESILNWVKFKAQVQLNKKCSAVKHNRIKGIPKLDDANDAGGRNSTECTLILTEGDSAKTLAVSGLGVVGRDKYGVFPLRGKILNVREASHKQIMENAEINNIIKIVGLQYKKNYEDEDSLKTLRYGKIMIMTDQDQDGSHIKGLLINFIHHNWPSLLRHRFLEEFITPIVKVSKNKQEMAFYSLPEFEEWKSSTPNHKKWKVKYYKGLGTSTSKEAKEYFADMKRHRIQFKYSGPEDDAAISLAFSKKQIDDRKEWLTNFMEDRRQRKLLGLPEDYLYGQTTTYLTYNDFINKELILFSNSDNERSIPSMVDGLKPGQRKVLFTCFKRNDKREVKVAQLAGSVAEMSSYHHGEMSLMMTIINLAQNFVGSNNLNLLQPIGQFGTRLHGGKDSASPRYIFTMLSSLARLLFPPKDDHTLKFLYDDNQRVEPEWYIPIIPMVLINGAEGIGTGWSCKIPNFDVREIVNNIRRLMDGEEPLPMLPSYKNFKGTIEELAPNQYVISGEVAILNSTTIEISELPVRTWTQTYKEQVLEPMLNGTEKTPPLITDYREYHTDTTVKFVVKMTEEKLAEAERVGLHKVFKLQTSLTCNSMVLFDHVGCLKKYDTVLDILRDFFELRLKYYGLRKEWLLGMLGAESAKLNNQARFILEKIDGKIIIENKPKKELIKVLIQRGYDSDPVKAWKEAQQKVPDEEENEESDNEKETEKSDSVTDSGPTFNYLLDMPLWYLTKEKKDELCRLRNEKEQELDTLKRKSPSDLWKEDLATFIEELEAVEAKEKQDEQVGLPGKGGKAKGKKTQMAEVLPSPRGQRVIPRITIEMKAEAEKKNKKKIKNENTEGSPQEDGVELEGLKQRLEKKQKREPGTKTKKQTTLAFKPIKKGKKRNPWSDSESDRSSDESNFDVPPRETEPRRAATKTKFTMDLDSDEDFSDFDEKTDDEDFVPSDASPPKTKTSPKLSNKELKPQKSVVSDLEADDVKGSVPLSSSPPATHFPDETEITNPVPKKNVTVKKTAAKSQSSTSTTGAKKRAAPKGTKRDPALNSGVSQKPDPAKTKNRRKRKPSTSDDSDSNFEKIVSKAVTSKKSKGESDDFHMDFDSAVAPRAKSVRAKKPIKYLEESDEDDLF

The IC50 is the concentration that gives 50% inhibition. Lower therefore signals inhibition by little substance. For the compound `CCOC(=O)C1C(=O)C=C(c2cn(-c3ccccc3)nc2-c2cccc(Br)c2)CC1c1cccnc1` (centres undefined) [Ethyl 4-(3-(3-bromophenyl)-1-phenyl-1H-pyrazol-4-yl)-2-oxo-6-(pyridin-3-yl)cyclohex-3-enecarboxylate (5d)], the IC50 was less than 100 µM.

For the compound `CCOC(=O)C1C(=O)C=C(c2cn(-c3ccccc3)nc2-c2cccc([N+](=O)[O-])c2)CC1c1cccnc1` (centres undefined) [Ethyl 4-(3-(3-nitrophenyl)-1-phenyl-1H-pyrazol-4-yl)-2-oxo-6-(pyridin-3-yl)cyclohex-3-enecarboxylate (5f)], the IC50 was less than 100 µM.

Consider `CCOC(=O)C1C(=O)C=C(c2cn(-c3ccccc3)nc2-c2ccccc2)CC1c1cccnc1` (centres undefined) [Ethyl 4-(1,3-diphenyl-1H-Pyrazol-4-yl)-2-oxo-6-(pyridin-3-yl)cyclohex-3-enecarboxylate (5a)], for which the IC50 turned out to be 222 µM.

Compound `NC(=S)N1N=C(c2cccnc2)CC1c1cn(-c2ccccc2)nc1-c1ccccc1` (centres undefined) [5-(1,3-Diphenyl-1H-pyrazol-4-yl)-3-(pyridin-3-yl)-4,5-dihydropyrazole-1-carbothioamide (6a)] registered an IC50 of 245 µM.

`CCOC(=O)C1C(=O)C=C(c2cn(-c3ccccc3)nc2-c2ccc(F)cc2)CC1c1cccnc1` (centres undefined) [Ethyl 4-(3-(4-fluorophenyl)-1-phenyl-1H-pyrazol-4-yl)-2-oxo-6-(pyridin-3-yl)cyclohex-3-enecarboxylate (5b)] had an IC50 of less than 100 µM.

In turn, `NC(=S)N1N=C(c2cccnc2)CC1c1cn(-c2ccccc2)nc1-c1cccc([N+](=O)[O-])c1` (centres undefined) [5-(3-(3-Nitrophenyl)-1-phenyl-1H-pyrazol-4-yl)-3-(pyridin-3-yl)-4,5-dihydropyrazole-1-carbothioamide (6f)] displayed an IC50 of 445 µM.

Consider `CCOC(=O)C1C(=O)C=C(c2cn(-c3ccccc3)nc2-c2ccc(C)cc2)CC1c1cccnc1` (centres undefined) [Ethyl 2-oxo-4-(1-phenyl-3-p-tolyl-1H-pyrazol-4-yl)-6-(pyridin-3-yl)cyclohex-3-enecarboxylate (5h)], for which the IC50 worked out at 395 µM.

`CCOC(=O)C1C(=O)C=C(c2cn(-c3ccccc3)nc2-c2ccc(Cl)cc2)CC1c1cccnc1` (centres undefined) [Ethyl 4-(3-(4-chlorophenyl)-1-phenyl-1H-pyrazol-4-yl)-2-oxo-6-(pyridin-3-yl)cyclohex-3-enecarboxylate (5c)] had an IC50 of less than 100 µM.

As for `CCOC(=O)C1C(=O)C=C(c2cn(-c3ccccc3)nc2-c2ccc(OC)cc2)CC1c1cccnc1` (centres undefined) [Ethyl 4-(3-(4-methoxyphenyl)-1-phenyl-1H-pyrazol-4-yl)-2-oxo-6-(pyridin-3-yl)cyclohex-3-enecarboxylate (5i)], half-maximal inhibition (IC50) was put at 428 µM.

Regarding `NC(=S)N1N=C(c2cccnc2)CC1c1cn(-c2ccccc2)nc1-c1cccc(Br)c1` (centres undefined) [5-(3-(3-Bromophenyl)-1-phenyl-1H-pyrazol-4-yl)-3-(pyridin-3-yl)-4,5-dihydropyrazole-1-carbothioamide (6d)], the IC50 was found to be 457 µM.

The compound `NC(=S)N1N=C(c2cccnc2)CC1c1cn(-c2ccccc2)nc1-c1ccc(Cl)cc1` (centres undefined) [5-(3-(4-Chlorophenyl)-1-phenyl-1H-pyrazol-4-yl)-3-(pyridin-3-yl)-4,5-dihydropyrazole-1-carbothioamide (6c)] came in with an IC50 of 406 µM.

`NC(=S)N1N=C(c2cccnc2)CC1c1cn(-c2ccccc2)nc1-c1ccc(Br)cc1` (centres undefined) [5-(3-(4-Bromophenyl)-1-phenyl-1H-pyrazol-4-yl)-3-(pyridin-3-yl)-4,5-dihydropyrazole-1-carbothioamide (6e)] returned a concentration for half-maximal inhibition (IC50) of 703 µM.

`CCOC(=O)C1C(=O)C=C(c2cn(-c3ccccc3)nc2-c2ccc([N+](=O)[O-])cc2)CC1c1cccnc1` (centres undefined) [Ethyl 4-(3-(4-nitrophenyl)-1-phenyl-1H-pyrazol-4-yl)-2-oxo-6-(pyridin-3-yl)cyclohex-3-enecarboxylate (5g)]: 256 µM corresponded to half-maximal inhibition (IC50).

For `NC(=S)N1N=C(c2cccnc2)CC1c1cn(-c2ccccc2)nc1-c1ccc(F)cc1` (centres undefined) [5-(3-(4-Fluorophenyl)-1-phenyl-1H-pyrazol-4-yl)-3-(pyridin-3-yl)-4,5-dihydropyrazole-1-carbothioamide (6b)], half-maximal inhibition (IC50) was put at 272 µM.

The values above are taken from BindingDB's records for doi:10.1016/j.bioorg.2016.10.001 (Jamia Millia Islamia (A Central University), 2016).
